Data from PubChem BioAssay AID248 (DTP/NCI, 2004).
Inconclusive results and toxic doses are left out. Rule as the data show it: active = T/C of 150% or more; inactive = T/C below 125%.

Test system: L1210 leukemia ip in BDF1 mice, survival T/C
Experiment: NCI In Vivo Anticancer Drug Screen. Data for tumor model L1210 Leukemia (intraperitoneal) in B6D2F1 (BDF1) mice
Settings: endpoint: mean survival time, higher = longer survival
Summary of the method: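 Transplantable tumor model; survival measured in treated vs vehicle control mice. Value = treated/control.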

[1] = dose: 100.0 mg/kg/injection, schedule: Q01DX001 (ip), vehicle: Klucel (hydroxypropylcellulose) (HPC)
[2] = dose: 100.0 mg/kg/injection, schedule: Q01DX009 (ip), vehicle: Klucel (hydroxypropylcellulose) (HPC)
[3] = dose: 100.0 mg/kg/injection, schedule: Q04DX003 (ip), vehicle: Klucel (hydroxypropylcellulose) (HPC)
[4] = dose: 200.0 mg/kg/injection, schedule: Q01DX001 (ip), vehicle: Klucel (hydroxypropylcellulose) (HPC)
[5] = dose: 200.0 mg/kg/injection, schedule: Q01DX009 (ip), vehicle: Klucel (hydroxypropylcellulose) (HPC)
[6] = dose: 200.0 mg/kg/injection, schedule: Q04DX003 (ip), vehicle: Klucel (hydroxypropylcellulose) (HPC)
[7] = dose: 400.0 mg/kg/injection, schedule: Q01DX001 (ip), vehicle: Klucel (hydroxypropylcellulose) (HPC)
[8] = dose: 400.0 mg/kg/injection, schedule: Q01DX009 (ip), vehicle: Klucel (hydroxypropylcellulose) (HPC)
[9] = dose: 400.0 mg/kg/injection, schedule: Q04DX003 (ip), vehicle: Klucel (hydroxypropylcellulose) (HPC)
[10] = dose: 100.0 mg/kg/injection, schedule: Q04DX003 (ip), vehicle: saline
[11] = dose: 200.0 mg/kg/injection, schedule: Q04DX003 (ip), vehicle: saline
[12] = dose: 100.0 mg/kg/injection, schedule: Q01DX009 (ip), vehicle: saline
[13] = dose: 50.0 mg/kg/injection, schedule: Q01DX001 (ip), vehicle: saline
[14] = dose: 100.0 mg/kg/injection, schedule: Q01DX001 (ip), vehicle: saline
[15] = dose: 200.0 mg/kg/injection, schedule: Q01DX001 (ip), vehicle: saline

Measured: T/C

N#C/C(=C\c1ccncc1)c1csc2ccccc12
inactive: dose: 100.0 mg/kg/injection, schedule: Q04DX003 (ip), vehicle: saline with Tween-80 101 % of control | dose: 200.0 mg/kg/injection, schedule: Q04DX003 (ip), vehicle: saline with Tween-80 100 % of control | dose: 400.0 mg/kg/injection, schedule: Q04DX003 (ip), vehicle: saline with Tween-80 94 % of control

CC(=O)OC(C)(C)/N=N/C(C)(C)OC(C)=O
inactive: [1] 94 % of control | [2] 101 % of control | [3] 108 % of control | [4] 108 % of control | [5] 101 % of control | [6] 101 % of control | [7] 103 % of control | [8] 101 % of control | [9] 103 % of control

CC(=O)/C=C(/C)O
inactive: [10] 100 % of control | [11] 118 % of control

Oc1c(Br)cc(Br)cc1/C=N/N=C/c1cc(Br)cc(Br)c1O
inactive: [1] 90 % of control | [2] 98 % of control | [3] 90 % of control | [4] 90 % of control | [6] 97 % of control | [7] 90 % of control | [8] 88 % of control | [9] 94 % of control

CN(C)C(=O)Nc1ccc(Cl)c(Cl)c1
inactive: [12] 94 % of control | [10] 103 % of control | dose: 200.0 mg/kg/injection, schedule: Q01DX009 (ip), vehicle: saline 102 % of control | [11] 102 % of control | dose: 400.0 mg/kg/injection, schedule: Q01DX009 (ip), vehicle: saline 93 % of control | dose: 400.0 mg/kg/injection, schedule: Q04DX003 (ip), vehicle: saline 96 % of control

O=C1CN(/N=C/c2ccc(-c3ccc(Cl)c(Cl)c3)o2)C(=O)N1
inactive: dose: 50.0 mg/kg/injection, schedule: Q04DX002 (ip), vehicle: Klucel (hydroxypropylcellulose) (HPC) 100 % of control | dose: 100.0 mg/kg/injection, schedule: Q04DX002 (ip), vehicle: Klucel (hydroxypropylcellulose) (HPC) 110 % of control | dose: 200.0 mg/kg/injection, schedule: Q04DX002 (ip), vehicle: Klucel (hydroxypropylcellulose) (HPC) 95 % of control

Clc1ccc(Cl)nc1
inactive: [2] 103 % of control | [3] 98 % of control | [5] 93 % of control | [6] 98 % of control | [8] 103 % of control | [9] 88 % of control

NCCSC(c1ccccc1)(c1ccccc1)c1ccccc1
inactive: dose: 25.0 mg/kg/injection, schedule: Q01DX009 (ip), vehicle: saline 94 % of control | dose: 50.0 mg/kg/injection, schedule: Q01DX009 (ip), vehicle: saline 103 % of control | [12] 107 % of control

COc1nc(=O)n(C2CCCO2)cc1C (stereo not drawn)
inactive: [13] 95 % of control | [14] 95 % of control | [15] 104 % of control | dose: 400.0 mg/kg/injection, schedule: Q01DX001 (ip), vehicle: saline 98 % of control

COc1ccc2c(ccc3nc(CCC(=O)O)n(C)c(=O)c32)c1
inactive: dose: 50.0 mg/kg/injection, schedule: Q01DX009 (ip), vehicle: Klucel (hydroxypropylcellulose) (HPC) 96 % of control | [2] 96 % of control | [5] 108 % of control

Cc1c(Cl)cccc1NC(=O)Sc1ccc(C(C)(C)C)cc1
inactive: [2] 100 % of control | [5] 90 % of control | [8] 98 % of control

Nc1ccc(C(O)(C(F)(F)F)C(F)(F)F)c(C(=O)O)c1
inactive: dose: 100.0 mg/kg/injection, schedule: Q04DX003 (ip), vehicle: other 101 % of control | dose: 200.0 mg/kg/injection, schedule: Q04DX003 (ip), vehicle: other 101 % of control | dose: 400.0 mg/kg/injection, schedule: Q04DX003 (ip), vehicle: other 101 % of control

OCc1ccc(CO)cc1
inactive: dose: 100.0 mg/kg/injection, schedule: Q01DX009 (ip), vehicle: saline sonified 100 % of control | dose: 200.0 mg/kg/injection, schedule: Q01DX009 (ip), vehicle: saline sonified 94 % of control | dose: 400.0 mg/kg/injection, schedule: Q01DX009 (ip), vehicle: saline sonified 103 % of control

COc1cc(C(=O)CO)cc(OC)c1OC(C)=O
inactive: dose: 5.0 mg/kg/injection, schedule: Q01DX001 (ip), vehicle: saline 97 % of control | dose: 10.0 mg/kg/injection, schedule: Q01DX001 (ip), vehicle: saline 103 % of control | dose: 20.0 mg/kg/injection, schedule: Q01DX001 (ip), vehicle: saline 89 % of control | dose: 40.0 mg/kg/injection, schedule: Q01DX001 (ip), vehicle: saline 97 % of control | dose: 80.0 mg/kg/injection, schedule: Q01DX001 (ip), vehicle: saline 92 % of control

CC(C)(C)C1CN1C(=S)Nc1ccccc1 (stereo not drawn)
inactive: [3] 104 % of control | [6] 105 % of control | [9] 102 % of control

O=Cc1ccc(N(c2ccccc2)c2ccccc2)cc1
inactive: [2] 102 % of control | [3] 96 % of control | [5] 91 % of control | [6] 100 % of control | [8] 94 % of control | [9] 94 % of control

O=C(NC(CSC1CCCCO1)C(=O)O)OCc1ccccc1 (stereo not drawn) (tested in a mixture with another compound)
inactive: [13] 106 % of control | [14] 101 % of control | [15] 97 % of control
